Source: patent US20060183803A1, “L-aspartic acid for the treatment of assorted health problems” (Instituto del Metabolismo Celular, S.L., priority 2005, published 2006)

Columns and labels:
[1] = Digestion problems of patients under treatment; format: in vivo, human; details: more than three hundred patients, after two or three weeks
[2] = Clinical trial in patients suffering from hypertension; format: in vivo, human
Description: Clinical trials for 250 patients suffering from hypertension (156 men and 94 women, with ages between 19 and 70 years) are reported below.
A summary of our clinical results are shown in Table 3 for average daily L-aspartic acid consumptions of 12 g/day (four daily 3 g doses).

[3] = Clinical trial in type-1 and type-2 diabetes patients; format: in vivo, human
Description: There is, in principle, no special protocol for patients suffering from diabetes (both types), which is different from the general one described above. Type-2 diabetes is usually associated with overweight and/or excess of fat in the body, so its protocol should not differ substantially from the general one presented above. With regard to type-I diabetes, since this treatment allows cells to consume less glucose, as it enhances their capacity to consume fat, it can reduce one's insulin dependence.
Diabetic patients were told to take their values of blood glucose regularly (three or four times a day during the first months) until they achieved good blood glucose values. During the treatment, when it was seen that blood glucose levels were decreasing, the patients were instructed to reduce the doses of drugs or insulin, until removing them completely, to avoid hypoglycemia.
Our clinical trails involved a group of 200 patients, […]. The patients were divided into four groups: (i) Type-2 diabetes patients who had been recently diagnosed and were not yet taking any oral drugs or insulin treatments, (ii) Type-2 diabetes patients who had been taking oral drugs (usually sulphonylurea derivatives) for up to several years, (iii) Type-2 diabetes patients who were suffering for many years, and had started their treatment with oral drugs and, after several years, progressed to insulin injections, which were eventually being supplemented with oral drugs, and (iv) Type-1 diabetes patients, all of them under insulin treatment. Most of these patients were also suffering from other related health problems (e.g., overweight or obesity, hypertension, sexual potency problems).
The basic treatment guidelines for these diabetes patients were essentially the same as that which was indicated above for our obesity and overweight patients (i.e., four daily takings of 1-3 grams of L-aspartic acid and the elimination of starches from one's diet).

[4] = Clinical trial in non-diabetic patients with blood cholesterol excess; format: in vivo, human; details: more than 200 non-diabetic patients, four daily takings of 1-3 grams
Description: These clinical trials included a group of more than 200 non-diabetic patients with blood cholesterol excesses. The basic treatment (i.e., four daily […] of 1-3 grams of L-aspartic acid and the elimination of starches from one's diet) for these patients was the same as that described above, plus: (i) complete elimination of carbohydrates from the diet, (ii) inclusion of unsaturated and polyunsaturated fat in all meals, and (iii) inclusion in some meals of cholesterol.

[5] = Ketosis in patients under treatment
[6] = Migraines, headaches and menstrual pains reported by patients under treatment; format: in vivo, human; details: improvement in first or second month, in some cases several months
[7] = Tobacco, caffeine and other drug addictions in patients under treatment; format: in vivo, human
Description: For the treatment of tobacco addiction, we found it advisable to increase the frequency of the intake of L-aspartic acid to 10-12 small doses per day in order to control the anxiety to smoke.
In our clinical trials, some of our patients were addicted to some soft drugs like coffee (caffeine), tobacco (nicotine), Prozac (fluoxetin), Trankimazin (alprazolam), Tranxilium (di-potasium chloride-acetate). In general, they were able to reduce their consumption of these materials while undergoing our recommended treatments. […] In tobacco release addiction programs, some small supplementary doses (0.5-1.0 g. every 30-45 minutes) may be necessary during the day to stop the patient's anxiety.
Smoking patients who expressed a desire to stop were advised to prepare a small bottle of water (or even fruit juice) with some small spoonfuls of L-aspartic acid, and to drink some small swigs of this throughout the day to control their anxiety levels.

[8] = Clinical trial of L-aspartic acid plus starch-free diet in obesity and overweight
[9] = Sexual potency problems of male patients under treatment; format: in vivo, human; details: after 2-3 months of treatment
Description: A number of the male patients in our trails initially complained of erectile disfunction and other sexual performance problems. […] These improvements were most significant for those patients who had reported problems of erectile disfunction; with these patients generally reporting improvements in all aspects of their sexual activities, including their sexual appetency and ability to ejaculate.

[10] = Patients with high blood uric acid levels under treatment; format: in vivo, human; details: sixty patients
Description: Sixty patients participating in this program had high blood uric acid levels.
Our treatment achieved a significant decrease in the uric acid levels of these patients: from initial levels of between 7.1 and 9.4 mg/100 mL to, after usually 2-4 months treatment, normal values.

With `N[C@@H](CC(=O)O)C(=O)O` [L-aspartic acid] the digestion problems [1] was “almost total resolution of their digestion problems”, the “reduction in % body fat” value ([2]; 250 hypertension patients, 12 g/day) was “approximately 10%” and the “mean time to attainment of recommended normal blood pressures” value ([2]; 250 patients, 12 g/day (four daily 3 g doses)) was 2.8 months. For the same compound, the “reduction of oral drugs and/or insulin injections” value ([3]; all diabetes patients) was “able to reduce to some degree their oral drugs and/or insulin injections”, the “glycosylated haemoglobin, cholesterol, tryglycerides and total lipids in blood analysis” value ([3]; diabetes patients) was “drastically reduced” and the “reduction in glycosylated haemoglobin levels” value ([3]; diabetes patients, over the duration of treatment) was no less than 20%. For the same compound, the “time to change from insulin injections to oral diabetes drugs” value ([3]; most type-2 patients receiving insulin injections) was 1-2 months, the “reduction in glycosylated haemoglobin level, single patient” value ([3]; patient Example 32 in Table 2) was 38.05% and the “onset of improvement in glycemia levels” value ([3]; two type-2 patients (FIGS. 6 and 7)) was “clear from the first week of treatment”. For the same compound, the “time to good control of glycemia and discontinuing diabetes medications” value ([3]; two type-2 patients (FIGS. 6 and 7), diabetes for over 10 years) was 1-2 months, the “reduction in insulin dosages” value ([3]; type-1 diabetes patients, over periods of 3-12 months) was 20-30% and the “blood cholesterol, tryglycerides and total lipid levels” value [4] was “clear improvement”. For the same compound, the “occurrence of ketosis under treatment” value ([5]; all patients under treatment) was “None of the patients under our treatment have suffered any kind of ketosis”, the “blood ketone bodies in patients with signs of ketosis before treatment” value ([5]; relatively short time after beginning treatments) was “achieved normal blood concentration of ketone bodies” and the “number of patients reporting migraines, headaches and menstrual pains” value [6] was “significant reduction”. For the same compound, the “daily number of cigarettes smoked” value ([7]; most tobacco-addicted patients interested in ceasing, after 2-4 weeks) was “able to reduce their daily numbers of cigarettes smoked”, the caffeine addiction ([7]; patients consuming 8-12 daily coffees or caffeine soft drinks) was “drastically eliminate this dependence in only a few weeks” and the smoking cessation ([7]; patients wishing to stop, small swigs through the day, after several weeks) was “all of these patients had ceased smoking”. For the same compound, the “safety of prolonged treatment (blood chemical analysis)” value ([8]; duration as long as one wants) was “without danger of intoxication”, the “fat burnt per day” value ([8]; estimated from water unloaded, ratio 14/18) was 200 to 600 g and the “biochemical and hematological parameters in periodic blood analysis” value ([8]; human, in vivo) was “consistently showed improvements”. For the same compound, the “side effect from reduced drinking” value ([8]; in some cases) was “hard stools and difficulty with bowel movements”, the weight loss outcome ([8]; more than 1,500 patients, ages 18 to 83) was “Successful weight losses in all cases” and the “usual weight loss rate” value ([8]; obesity patients, also printed as 11-13 pounds per month) was 5-6 kg per month. For the same compound, the “carbohydrate abstinence syndrome (weakness, feeling sick)” value ([8]; on elimination of carbohydrate-rich foods) was “only during their first two weeks of participation”, the “fat as percentage of body mass after treatment” value ([8]; person (FIG. 5), 41.1% at start, after 290 days) was 23% and the “body fat mass after treatment” value ([8]; person (FIG. 5), 53.5 kg of fat at start, after 290 days) was 19.1 kg. The “body weight after treatment” value ([8]; person (FIG. 5), 130 kg at start, after 290 days of treatment) was 83 kg, the weight reduction ([8]; person (FIG. 5), after 290 days of treatment) was 47 kg and the “change in percentage of body fat” value ([8]; versus conventional hypocaloric diets) was “significant reductions in our patients' percentages of body fat”. The “anxiety, hunger pangs or energy loss during treatment” value ([8]; without sedative or stimulant drug) was “no significant anxiety, hunger pangs or energy loss”, the “erectile disfunction and other sexual performance problems” value [9] was “significant diminishments of their problems” and the “blood uric acid level after treatment” value ([10]; initial levels between 7.1 and 9.4 mg/100 mL) was “normal values”. The “treatment time to normal uric acid values” ([10]; usually) was 2-4 months.
